Measurements reported in US20220184162A1, “PREPARATIONS CONTAINING BERRY EXTRACTS FOR USE IN TREATING CANCER” (Evonik Operations GmbH, priority 2019, published 2022).

Legend:
[1] = tested on: isolated PBMCs (non-activated); test: Activating effect on isolated non-activated PBMCs (CellTrace CFSE proliferation, flow cytometry); assay type: cell-based, human; conditions: for Median Fluorescence Day 7 Average / Median Fluorescence Day 2 Average: CellTrace CFSE; for Median Fluorescence Day 2 Average: no activation stimulus
Description: (§1) Upon recognition of a foreign substance (foreign peptide presented on MHC) by the T cell receptor (TCR) and stimulation of the co-receptor CD28 the T cells start to proliferate. Thus, proliferation is a clear indication of T cell activation. Another classic activation marker for T cells is CD25, the high affinity receptor for the interleukin IL-2. This protein is not expressed by resting T cells and transcription is induced by TCR signaling. Thus, the presence of CD25 on the surface of T cells is a clear indicator of T cell activation. On the contrary, T cell exhaustion correlates with the signaling-induced expression of PD-1 on the surface of the T cells. To test the impact of substances on T cell activation, proliferation as well as CD25 and PD-1 upregulation, are used as readouts. Primary human Peripheral blood mononuclear cells (PBMCs) isolated from the blood of healthy donors (including primary T-cells) were used. PBMC cells represent a heterogenic population with 45-80% T cells, 5-20% B cells, 10-25% monocytes and 5-20% NK cells.
(§2) CellTrace™ stock solution was prepared according to the manual; addition of 15 μL DMSO to the CellTrace™ reagent and mixed well. Cell suspension was adjusted to 10^6 cells/mL in RPMI without FBS before addition of 1 μL CellTrace™ stock solution to each mL of cell suspension. After 20 minutes incubation (protected from light) of the cells at room temperature, five times the volume of culture medium was added and then again incubated for 5 min at room temperature. Afterwards the cells were centrifuged (300×g for 5 min) and the pellet resuspended in fresh culture medium. As last step the cells were incubated at 37° C. with 5% CO2 for 1-2 hours before the set-up of the experiment.
(§3) Following CFSE labelling and recovering at 37° C. with 5% CO2, cells were mixed with the extract as follows: 20 μL of extract were placed in a 96-well u-bottom culture plate as triplicates, then 180 μL cell suspension was added on top and mixed. Final concentration of the cells was 5*10^4 cells/well (=2.5*10^5 cells/mL).
(§4) Sample format: 96 well with 200 μL/well and 10,000 events measured per sample. FACS (fluorescence activated cell sorting) gating was performed via SSC (sideward scatter) versus FSC (forward scatter) density blot. A gate has been applied to identify viable cells. Percentage of viable cells was determined for all samples of a 96-well plate.
(§5) CellTrace™ CFSE median fluorescence (488 nm excitation and a 530/30 nm bandpass emission filter): From viable cell population single cells were determined and viable, single cells within the gate defined in a histogram to evaluate the level of fluorescence intensity of cells labelled with CellTrace™ CFSE. Cell proliferation was followed for 7 days. With increasing level of proliferation median fluorescence decreases, shown as shift of peak from right to left within the flow cytometer; non-labeled cells shown on the far-left side. Median fluorescence was determined as read-out. Earliest observable influence on proliferation and activation was expected after 3 days of incubation with the test compounds.
All cells (40*10^6) of one vial of frozen PBMC's (non-activated) were used for CFSE staining and cultured with extracts as follows: Day 0-3 in RPMI 1640 with 10% FBS, 1% HEPS (10 mM); day 3-7 in RPMI 1640 with 10% FBS, 1% HEPS (10 mM) and 100 U/mL IL-2.
(§6) Water, DMSO or DMF were used as negative control; UCHT1 (anti-CD3) antibody as positive control. The samples plate set-up was used as follows:
(§7) Half medium change with fresh extracts of final concentration was done every day.
To evaluate, if the chosen test compounds could have an activating effect on isolated PBMCs (Peripheral Blood Mononuclear Cells) and induce them to proliferate, PBMCs were incubated together with the test compounds in different concentrations. […]

activated PBMCs = test: Influence on proliferation of activated PBMCs (anti-CD3/anti-CD28, IL-2; CellTrace CFSE); assay type: cell-based, human; conditions: for Median Fluorescence Day 2 Average / Median Fluorescence Day 3 Average: CellTrace CFSE, activated PBMCs, 100 U/ml IL-2; for proliferation of activated PBMCs on day 3 (in words): versus water, maltodextrin or solvent control
Description: as §1, §2, §3, §4, §5
PBMCs isolated from blood were activated for 2 days on an activating surface with anti-CD3 (UCHT1) and anti-CD28. Activated PBMCs were then induced to proliferate by adding 1000 U/ml IL-2. Therefore, the cells were transferred to a new dish without activating antibodies and 2 days later the activated cells were used to set up the experiment. 40*10^6 cells were used for CFSE staining and cultured with extracts in RPMI 1640 with 10% FBS, 1% HEPS (10 mM), 0.1% β-mecaptoethanol (50 μM), 0.5% Pen/Strep and 100 U/ml IL-2.
as §6, §7
In the next experiment the effect of the test compounds on the proliferation of activated PBMCs was evaluated. […]

[2] = tested on: CD4+ T cells in activated PBMCs; test: Analysis of T cell populations via flow cytometry, CD4+; assay type: cell-based, human; conditions: FIG. 7
Description: (§8) Sample preparation and plate set-up was used as described before in the T cell activation assay. Primary PBMCs were seeded on activating surface (anti-CD3, anti-CD28) with medium containing 1000 U/ml IL-2 for 2 days. The activated PBMCs were then cultured with the prepared sample concentrations in medium containing 100 U/ml IL-2 every day from day 3 on after isolation. Half medium change with fresh samples and flow cytometry measurement was performed every day. All cells for flow cytometry were labelled with an antibody mixture containing Annexin V_Alexa594, anti-CD4_APC and anti-CD8_PE for CD-marker as well as live-dead staining.
(§9) PBMS were activated by using an activating surface and the addition of Interleukin-2 to the cell culture media. The activated PBMCs, which contain T-cells as the most prominent cell type, were treated with the berry extracts or the anthocyanins from day 3 on after isolation. To evaluate the different T cell population flow cytometry analysis were performed with anti-CD4 and anti-CD8 antibodies in combination with Annexin V staining as live-dead-staining.

[3] = tested on: CD8+ T cells in activated PBMCs; test: Analysis of T cell populations via flow cytometry, CD8+; assay type: cell-based, human; conditions: FIG. 6
Description: as §8, §9

[4] = tested on: Jurkat cells (T cell leukemia); test: Cell viability (Cell Titer Glo, ATP luminescence); assay type: cell-based; conditions: increasing concentrations; FIG. 8A, FIG. 9
Description: Similar cell viability assays were performed with additional cell lines (HeLa, Jurkat, Mt4 and THP-1) and using the Cell Titer Glo Assay. In order to further evaluate the effect of Healthberry® 865 on T cell populations and specifically the CD4+ populations, additional cell viability analysis was performed. On the basis that Healthberry® 865 has an influence on the CD4+ cell populations and additionally on the activation status of T cells, specifically T cell leukemia/lymphoma cell lines as Jurkat (T cell leukemia) and Mt4 (HTLV-I positive; human T-cell lymphotropic virus type I retrovirus causes adult T-cell leukemia-lymphoma) cells were chosen as in vitro models. Furthermore, control cell lines were chosen, which are not CD4^+ such as HeLa cells (epithelial cervix carcinoma) or which represent another type of leukemia such as THP-1 (acute monocytic leukemia). […] Cell viability tests were performed with the T cell leukemia cell lines Jurkat (FIG. 8A) and Mt4 (FIG. 8B) as well as with control cell lines such as the CD4 negative cervix carcinoma cell line HeLa (FIG. 8C) and the monocytic leukemia cell line THP 1 (FIG. 8D). Cell viability was evaluated based on ATP amount and via luminescence measurement. Samples were tested in triplicates.

Compound | proliferation of activated PBMCs on day 3 (in words) (activated PBMCs) | Median Fluorescence Day 7 Average ([1]; 15 μg/mL, IL-2 from day 3) | Median Fluorescence Day 2 Average ([1]; 15 μg/mL) | Median Fluorescence Day 7 Average ([1]; 30 μg/mL, IL-2 from day 3) | Median Fluorescence Day 2 Average ([1]; 30 μg/mL) | Median Fluorescence Day 7 Average ([1]; 75 μg/mL, IL-2 from day 3) | Median Fluorescence Day 2 Average ([1]; 75 μg/mL) | Median Fluorescence Day 2 Average (activated PBMCs; 15 μg/mL) | Median Fluorescence Day 3 Average (activated PBMCs; 15 μg/mL) | Median Fluorescence Day 2 Average (activated PBMCs; 30 μg/mL) | Median Fluorescence Day 3 Average (activated PBMCs; 30 μg/mL) | Median Fluorescence Day 2 Average (activated PBMCs; 75 μg/mL) | Median Fluorescence Day 3 Average (activated PBMCs; 75 μg/mL) | also measured
CC1=C(/C=C/C(C)=C/C=C/C(C)=C/C=C/C=C(C)/C=C/C=C(C)/C=C/C2=C(C)C(=O)[C@@H](O)CC2(C)C)C(C)(C)C[C@H](O)C1=O [Astaxanthin, reference compound] | slower proliferation |  |  |  |  |  |  |  |  |  |  |  |  | Median Fluorescence Day 7 Average ([1]; 2 μg/mL, IL-2 from day 3): 20201; Median Fluorescence Day 2 Average ([1]; 2 μg/mL): 33336; Median Fluorescence Day 7 Average ([1]; 4 μg/mL, IL-2 from day 3): 19444; Median Fluorescence Day 2 Average ([1]; 4 μg/mL): 32336; Median Fluorescence Day 7 Average ([1]; 10 μg/mL, IL-2 from day 3): 16442; Median Fluorescence Day 2 Average ([1]; 10 μg/mL): 36178; Median Fluorescence Day 2 Average (activated PBMCs; 2 μg/mL): 14190; Median Fluorescence Day 3 Average (activated PBMCs; 2 μg/mL): 6502; Median Fluorescence Day 2 Average (activated PBMCs; 4 μg/mL): 15365; Median Fluorescence Day 3 Average (activated PBMCs; 4 μg/mL): 10055; Median Fluorescence Day 2 Average (activated PBMCs; 10 μg/mL): 19750; Median Fluorescence Day 3 Average (activated PBMCs; 10 μg/mL): 15342
C[C@@H]1O[C@@H](OC[C@H]2O[C@@H](Oc3cc4c(O)cc(O)cc4[o+]c3-c3ccc(O)c(O)c3)[C@H](O)[C@@H](O)[C@@H]2O)[C@H](O)[C@H](O)[C@H]1O [C3R, cyanidin 3-rutinoside] | dose-dependent and significant decrease of proliferation | 21030 | 33603 | 21539 | 33737 | 22855 | 34486 | 14630 | 6153 | 15317 | 7228 | 17032 | 11086 | 
C[C@@H]1O[C@@H](OC[C@H]2O[C@@H](Oc3cc4c(O)cc(O)cc4[o+]c3-c3cc(O)c(O)c(O)c3)[C@H](O)[C@@H](O)[C@@H]2O)[C@H](O)[C@H](O)[C@H]1O [D3R, delphinidin 3-rutinoside] | dose-dependent and significant decrease of proliferation | 20821 | 34772 | 25171 | 34646 | 44248 | 37453 | 14407 | 6602 | 15685 | 8150 | 19716 | 13927 | activation / proliferation of non-activated PBMCs (in words) ([1]; 2 days up to 7 days incubation, IL-2 from day 3): slight decrease of proliferation; change of CD4+ T cells in comparison to controls [2]: most significant effects; change of CD8+ T cells in comparison to controls [3]: most significant effects
OC[C@H]1O[C@@H](Oc2cc3c(O)cc(O)cc3[o+]c2-c2cc(O)c(O)c(O)c2)[C@H](O)[C@@H](O)[C@@H]1O [D3G, Delphinidin 3-glucoside] |  |  |  |  |  |  |  |  |  |  |  |  |  | cell viability (ATP amount, luminescence) [4]: specific reduction
